From US20250205186A1, “USE OF CHLOROGENIC ACID IN PREPARING MEDICINE OR PHARMACEUTICAL COMPOSITION FOR PREVENTING OR TREATING PAIN” (SICHUAN JIUZHANG BIOLOGICAL SCIENCE AND TECHNOLOGY CO., LTD., priority 2019, published 2025)

What was measured:
[1] = tested on: bone cancer pain in rats (Walker rat breast cancer cells, tibia implant model); test: Radiant heat pain response (pain threshold) in rat tibia implant bone cancer pain model; type: in vivo; conditions: for Radiant heat pain threshold compared with the model group: from 7 days after administration, p<0.05
Experimental: After two SD female rats were intraperitoneally injected with 0.5 mL cancer cells (4×10^4 cells/μL), ascites was collected on the 7th day, and the cells are rinsed 3 times with sterile 0.01 mol/L PBS to adjust to the concentration of 4×10^3 cells/μL for use. 60 SD rats were randomly selected, and after anesthesia, a small 1 cm incision was made in the upper tibial skin. A 10 mL syringe needle was used to puncture and perforate, then a 10 μL syringe was inserted into the bone marrow cavity, and 3 μL cell suspension containing 3×10^3 Walker rat breast cancer cells was slowly injected. The pinhole was sealed with bone wax, and the skin was sutured. After surgery, the rats were placed on a 37° C. hot plate for rewarming. After recovery, rats were returned to the cage for further breeding, to obtain the model group. In addition, 8 SD rats were randomly selected, and an equal volume of PBS solution was injected into the marrow cavity of the left upper tibia. The rest of the operations were the same as the model group, to obtain the sham operation group. Radiation thermal pain response: the rat was placed on a glass plate, and the affected side of the foot was irradiated with a heat radiator. The plantar side of each rat would be tested 3 times at an interval of 5 min. The response time from exposure to paw withdrawal was recorded, and the time to retract the paw was the pain threshold. […] The rats that had been successfully modeled were randomly divided into groups, eight rats for each group, that included high-dose chlorogenic acid group (80 mg/kg), middle-dose chlorogenic acid group (40 mg/kg), low-dose chlorogenic acid group (20 mg/kg), model negative group (N.S normal saline), and sham operation group (N.S normal saline). The rats were intraperitoneally injected with drugs for 15 days in a volume of 0.2 mL/10 g, once a day; the model-negative group and the sham operation group were given the same volume of normal saline. From the second day after administration, the mechanical pain hypersensitivity and radiation thermal pain were investigated before each administration, and the paw withdrawal threshold and the pain threshold were recorded.

DA = DA content in brain tissue by HPLC-EC in bone cancer pain rats; type: in vivo, rat; conditions: for DA content in the brain tissue: after 15 days of administration
Experimental: (§1) 60 SD rats were randomly selected, and after anesthesia, a small 1 cm incision was made in the upper tibial skin. A 10 mL syringe needle was used to puncture and perforate, then a 10 μL syringe was inserted into the bone marrow cavity, and 3 μL cell suspension containing […] Walker rat breast cancer cells was slowly injected. The pinhole was sealed with bone wax, and the skin was sutured. After surgery, the rats were placed on a 37° C. hot plate for rewarming. After recovery, rats were returned to the cage for further breeding, to obtain the model group. In addition, 8 SD rats were randomly selected, and an equal volume of PBS solution was injected into the marrow cavity of the left upper tibia. The rest of the operations were the same as the model group, to obtain the sham operation group. The rats that had been successfully modeled were randomly divided into groups, eight rats for each group, that included high-dose chlorogenic acid group (80 mg/kg), middle-dose chlorogenic acid group (40 mg/kg), low-dose chlorogenic acid group (20 mg/kg), model negative group (N.S normal saline), and sham operation group (N.S normal saline). The rats were intraperitoneally injected with drugs for 15 days in a volume of 0.2 mL/10 g, once a day; the model-negative group and the sham operation group were given the same volume of normal saline. After the rats were sacrificed, the hypothalamus was quickly separated, homogenized in an ice bath with perchloric acid, and centrifuged. The supernatant was collected, and the contents of NE, DA, and 5-HT were determined by HPLC-EC method (Hou […], Wang Na, et al, Effects of progesterone on morphine-induced conditioned place preference and levels of monoamine transmitters in rat brain. Chinese Journal of Pharmacology, 2006, 22(8), 980-983).

5-HT = 5-HT content in brain tissue by HPLC-EC in bone cancer pain rats; type: in vivo, rat; conditions: for 5-HT content in the brain tissue: after 15 days of administration
Experimental: as §1

SMILES: O=C(/C=C/c1ccc(O)c(O)c1)O[C@@H]1C[C@](O)(C(=O)O)C[C@@H](O)[C@H]1O [Chlorogenic acid]
- Pain threshold ([1]; 20 mg/kg ip once a day, 2 d): 3.86 s
- Pain threshold ([1]; 20 mg/kg ip once a day, 3 d): 4.11 s
- Pain threshold ([1]; 20 mg/kg ip once a day, 4 d): 3.93 s
- Pain threshold ([1]; 20 mg/kg ip once a day, 5 d): 9.53 s
- Pain threshold ([1]; 20 mg/kg ip once a day, 6 d): 16.66 s
- Pain threshold ([1]; 20 mg/kg ip once a day, 7 d): 17.89 s
- Pain threshold ([1]; 20 mg/kg ip once a day, 8 d): 16.72 s
- Pain threshold ([1]; 20 mg/kg ip once a day, 9 d): 15.45 s
- Pain threshold ([1]; 20 mg/kg ip once a day, 10 d): 16.74 s
- Pain threshold ([1]; 20 mg/kg ip once a day, 11 d): 15.52 s
- Pain threshold ([1]; 20 mg/kg ip once a day, 12 d): 15.97 s
- Pain threshold ([1]; 20 mg/kg ip once a day, 13 d): 16.35 s
- Pain threshold ([1]; 20 mg/kg ip once a day, 14 d): 16.22 s
- Pain threshold ([1]; 20 mg/kg ip once a day, 15 d): 16.75 s
- Radiant heat pain threshold compared with the model group ([1]; 20 mg/kg): significant difference
- Pain threshold ([1]; 40 mg/kg ip once a day, 2 d): 3.62 s
- Pain threshold ([1]; 40 mg/kg ip once a day, 3 d): 3.52 s
- Pain threshold ([1]; 40 mg/kg ip once a day, 4 d): 6.36 s
- Pain threshold ([1]; 40 mg/kg ip once a day, 5 d): 12.52 s
- Pain threshold ([1]; 40 mg/kg ip once a day, 6 d): 20.53 s
- Pain threshold ([1]; 40 mg/kg ip once a day, 7 d): 20.49 s
- Pain threshold ([1]; 40 mg/kg ip once a day, 8 d): 19.83 s
- Pain threshold ([1]; 40 mg/kg ip once a day, 9 d): 21.21 s
- Pain threshold ([1]; 40 mg/kg ip once a day, 10 d): 24.32 s
- Pain threshold ([1]; 40 mg/kg ip once a day, 11 d): 20.59 s
- Pain threshold ([1]; 40 mg/kg ip once a day, 12 d): 21.41 s
- Pain threshold ([1]; 40 mg/kg ip once a day, 13 d): 22.39 s
- Pain threshold ([1]; 40 mg/kg ip once a day, 14 d): 21.74 s
- Pain threshold ([1]; 40 mg/kg ip once a day, 15 d): 20.88 s
- Radiant heat pain threshold compared with the model group ([1]; 40 mg/kg): significant difference
- Pain threshold ([1]; 80 mg/kg ip once a day, 2 d): 4.17 s
- Pain threshold ([1]; 80 mg/kg ip once a day, 3 d): 4.24 s
- Pain threshold ([1]; 80 mg/kg ip once a day, 4 d): 4.09 s
- Pain threshold ([1]; 80 mg/kg ip once a day, 5 d): 5.52 s
- Pain threshold ([1]; 80 mg/kg ip once a day, 6 d): 8.15 s
- Pain threshold ([1]; 80 mg/kg ip once a day, 7 d): 8.22 s
- Pain threshold ([1]; 80 mg/kg ip once a day, 8 d): 7.98 s
- Pain threshold ([1]; 80 mg/kg ip once a day, 9 d): 7.59 s
- Pain threshold ([1]; 80 mg/kg ip once a day, 10 d): 8.03 s
- Pain threshold ([1]; 80 mg/kg ip once a day, 11 d): 8.05 s
- Pain threshold ([1]; 80 mg/kg ip once a day, 12 d): 7.76 s
- Pain threshold ([1]; 80 mg/kg ip once a day, 13 d): 7.98 s
- Pain threshold ([1]; 80 mg/kg ip once a day, 14 d): 8.52 s
- Pain threshold ([1]; 80 mg/kg ip once a day, 15 d): 8.38 s
- Threshold compared with the model group (radiant heat pain section) ([1]; 80 mg/kg, p>0.05): not statistically significant
- DA content in the brain tissue (DA; 20 mg/kg ip once a day): 1.38 ± 0.21 nmol/g
- DA content in brain tissue compared with the model-negative group (DA; 20 mg/kg, p<0.05): the difference was significant
- DA content in the brain tissue (DA; 40 mg/kg ip once a day): 1.46 ± 0.08 nmol/g
- DA content in brain tissue compared with the model-negative group (DA; 40 mg/kg, p<0.05): the difference was significant
- DA content in the brain tissue (DA; 80 mg/kg ip once a day): 1.15 ± 0.12 nmol/g
- DA content in brain tissue compared with the model-negative group (DA; 80 mg/kg, p>0.05): no significant difference
- 5-HT content in the brain tissue (5-HT; 20 mg/kg ip once a day): 0.91 ± 0.15 nmol/g
- 5-HT content in brain tissue compared with the model-negative group (5-HT; 20 mg/kg, p<0.05): the difference was significant
- 5-HT content in the brain tissue (5-HT; 40 mg/kg ip once a day): 0.95 ± 0.19 nmol/g
- 5-HT content in brain tissue compared with the model-negative group (5-HT; 40 mg/kg, p<0.05): the difference was significant
- 5-HT content in the brain tissue (5-HT; 80 mg/kg ip once a day): 0.77 ± 0.11 nmol/g
- 5-HT content in brain tissue compared with the model-negative group (5-HT; 80 mg/kg, p>0.05): no significant difference
